Experimental data as given in ChEMBL document CHEMBL1770049, “Synthesis of novel mast cell-stabilising and anti-allergic 1,2,3,4-tetrahydro-1-naphthalenols and related compounds” (Eur J Med Chem, 2011).
Activity calls are given as the source filed them. The calls are words filed in the database; no cut-off is given here.

Experiments:
[1] = Antiallergic activity in rat Peritoneal mast cell assessed as inhibition of compound 48/80-induced histamine release; format: functional, cell-based
[2] = Antiallergic activity in rat Peritoneal mast cell assessed as inhibition of compound 48/80-induced histamine release at 20 uM; format: functional
Mus musculus = experiment: Antiinflammatory activity in Laca mouse assessed as inhibition of arachidonic acid induced ear oedema at 300 ug/ear; format: functional, organism-based
Rattus norvegicus = experiment: Antiallergic activity in sensitized rat assessed as inhibition of ovalbumin-induced passive cutaneous anaphylaxis at 3 mg/kg, iv after 30 mins relative to control; format: functional; conditions: 0.5 h
[3] = Antiallergic activity in rat Peritoneal mast cell assessed as inhibition of ionophore A23187-induced histamine release; format: functional, cell-based
[4] = Lipophilicity, log P of the compound; format: physicochemical; conditions: octanol/water
[5] = Antiallergic activity in rat Peritoneal mast cell assessed as inhibition of Con A-induced histamine release; format: functional, cell-based

Compound	IC50 [1] [µM]	IC50 [3] [µM]	logP [4]	IC50 [5] [µM]	inhibition at 20 µM [2] [%]	Activity (Mus musculus)	inhibition in vivo at 3 mg/kg (Rattus norvegicus) [%]
Cc1ccc(CC2(/C=C/c3ccccc3)CCc3ccccc3C2O)cc1 (stereo not given)	9.4	–	–	–	–	–	–
CC(Cc1ccccc1)(C1=Cc2ccccc2C1)C(O)c1ccccc1 (stereo not given)	–	–	–	–	82	inactive	–
O=C(O)c1cc(=O)c2c(OCC(O)COc3cccc4oc(C(=O)O)cc(=O)c34)cccc2o1 [CROMOLYN SODIUM]	–	–	–	–	10	–	87
O=C1c2ccccc2CCC1C1=Cc2ccccc2CC1 (stereo not given)	8	–	–	–	–	–	–
OC1c2ccccc2CCC1(/C=C/c1ccccc1)Cc1ccccc1 (stereo not given)	55.3	–	6.58	–	–	inactive	44

Now from value to compound, other results behind:

IC50 [1] [µM]	IC50 [3] [µM]	logP [4]	IC50 [5] [µM]	Compound	inhibition at 20 µM [2] [%]	Activity (Mus musculus)	inhibition in vivo at 3 mg/kg (Rattus norvegicus) [%]
3.3	–	–	–	CC(Cc1ccccc1)(C1=Cc2ccccc2CC1)C(O)c1ccccc1 (stereo not given)	–	inactive	–
70.9	–	–	–	CC(/C=C/c1ccccc1)(Cc1ccccc1)C(O)c1ccccc1 (stereo not given)	–	–	–
7.7	4.7	6.3	3.6	OC1c2ccccc2CC1(Cc1ccccc1)C1=Cc2ccccc2CC1 (stereo not given)	–	inactive	2
4.1	10	6.3	0.75	OC1c2ccccc2CCC1(Cc1ccccc1)C1=Cc2ccccc2C1 (stereo not given)	–	Active	-5
